Data reported in ChEMBL document CHEMBL1128170, “Stereochemistry of the benzodiazepine based Ras farnesyltransferase inhibitors” (Bioorg Med Chem Lett, 1995).

Biological target: Protein farnesyltransferase (Rattus norvegicus, UniProt Q02293+Q04631)
Experiment: Tested for inhibitory activity against rat brain p21ras Ras Farnesyltransferase (FTase)

Row | SMILES | IC50 [nM]
1 | CSCC[C@@H](NC(=O)CN1C(=O)[C@H](N(C)C(=O)[C@@H](N)CS)N=C(c2ccccc2)c2ccccc21)C(=O)O | 80
2 | CSCC[C@H](NC(=O)CN1C(=O)[C@H](N(C)C(=O)[C@@H](N)CS)N=C(c2ccccc2)c2ccccc21)C(=O)O (stereo in doubt; form 1) | 370
3 | CSCC[C@H](NC(=O)CN1C(=O)[C@H](N(C)C(=O)[C@@H](N)CS)N=C(c2ccccc2)c2ccccc21)C(=O)O (stereo in doubt; form 2) | 0.85
4 | CSCC[C@H](NC(=O)CN1C(=O)[C@H](N(C)C(=O)[C@@H](N)CS)N=C(c2ccccc2)c2ccccc21)C(=O)O (stereo in doubt; form 3) | 2.1
